Key:
U87MG cells [1] = assay: Combination with Akt kinase inhibitors in U87MG cells (western blot, ATP assay); type: cell-based, human; conditions: 100 μM PIT-1 with 10 μM Akt inhibitor
Description: U87MG cells were treated with 100 μM PIT-1, or 10 μM Akt inhibitor VIII (Calbiochem) or Akt inhibitor (Calbiochem), or 100 μM PIT-1 together with 10 μM Akt inhibitor VIII or Akt inhibitor, for 12 hr and then phosphorylation events were evaluated by western blot.

U87MG cells [2] = assay: Long-term colony formation; type: cell-based, human
[3] = target: R86A mutant of the PH domain (Homo sapiens (Human), UniProt P31749, R86A); assay: NMR HSQC binding analysis, mutant PH domain
[4] = test system: PI3K/PDK1/Akt signaling pathway; assay: PIP3-dependent phosphorylation events in HUVEC, Western blotting; type: cell-based, human; conditions: 50, 100 and 200 μM, 2 hr, bFGF
Description: Endothelial cell migration plays a central role in tumor angiogenesis. Avraamides C J et al. (2008) Nat Rev Cancer 8:604-17. […] First, human umbilical vein endothelial cells (HUVEC) cells were serum starved overnight, and treated with different concentrations of PIT-1 (50, 100 and 200 μM) for 2 hr, followed by stimulation with 10 ng/ml bFGF for 15 min, and the PIP3-dependent phosphorylation events were evaluated by Western blotting.

[5] = test system: Bax/Bak double knockout cells; assay: Cell killing in Bax/Bak double knockout versus wild-type cells; type: cell-based, mouse
Description: Human and mouse cancer cell lines (U87MG, SUM159, A549, MDA-MB-231, 4T1, B16-F10) and human umbilical vein endothelial cells (HUVEC) were purchased from the American Type Culture Collection (Rockville, Md., USA). Mouse adult lung fibroblasts (Akt-deficient and Akt1-expressing) were a generous gift of Dr. Philip Tsichlis (Tufts University). Maroulakou I et al. (2007) Cancer Res 67:167-77. Bax/Bak double knockout mouse embryonic fibroblasts (Wei M C et al. (2001) Science 292:727-30) and matched wild-type cells were a generous gift of Dr. Stanley Korsmeyer (Dana-Farber Cancer Center). B16-F10, U87MG, 4T1, A549, MDA-MB-231 and fibroblast cells were cultured in DMEM medium with 10% fetal bovine serum (FBS). SUM159 was maintained in Ham's F-12 medium with 5% FBS, 5 μg/ml insulin, and 1 μg/ml hydrocortisone. HUVEC cells were cultured in M199 medium with 20% FBS, 20 μg/ml ECGS, and 50 μg/ml heparin. All media were supplemented with 100 units/ml penicillin, 100 μg/ml streptomycin, and 2 mM glutamine. All cells were cultured in a humidified atmosphere of 95% air and 5% CO2 at 37° C.
Since PI3K/PIP3/Akt signaling plays a critical role in the inhibition of apoptosis (Datta S R et al. (1999) Genes Dev 13:2905-27), the possibility that PITs induce apoptosis was examined. […] Proapoptotic Bcl-2 family members Bax and Bak are important mediators of apoptosis. Wei M C et al. (2001) Science 292:727-30. […]

Bcl-xL = Bcl-xL (Homo sapiens (Human), UniProt Q07817); assay: NMR HSQC specificity control; type: binding
cancer cells = assay: Cancer cell invasion through matrigel; type: cell-based
Source text: Simpson K J et al. (2004) Cancer Res 64:8694-701.

PLC-δ PH domain = PLC-δ PH domain (Homo sapiens (Human), UniProt P51178); assay: PH domain translocation assay (GFP fusion); type: cell-based
Description: Cells were transfected with the corresponding GFP-fusion vectors, serum starved overnight, and incubated with 100 μM PITs or PIT-1 is for 2 hr, followed by stimulation with 100 ng/ml PDGF or 250 ng/ml PMA for 5 min. The translocation was analyzed using fluorescent microscope and was quantitated by counting the number of cells with translocated PH domains in five random fields.

VAV2 = VAV2 (Homo sapiens (Human), UniProt P52735); assay: Plasma membrane translocation assay (GFP fusion); type: cell-based; conditions: PDGF stimulation
Description: (§1) To begin characterizing cellular activity of PITs, a PH domain translocation assay was performed, measuring PIP3-induced association of GFP-fused PH domains with the plasma membrane. This method provides useful means for monitoring status of the PH domain/PIP3 binding in the intact cells. Varnai P et al. (1999) J Biol Chem 274:10983-9. Several PH-domain-containing proteins, which are known to bind PIP3 specifically and efficiently, were examined. […] Oikawa T et al. (2004) Nat Cell Biol 6:420-6.

WAVE2 = WAVE2 (Homo sapiens (Human), UniProt Q9Y6W5); assay: Plasma membrane translocation assay (GFP fusion); type: cell-based
Description: as §1

[6] = target: PH domain of Akt (His6-Akt123) (Homo sapiens (Human), UniProt P31749); assay: NMR 2D HSQC binding analysis
Description: To further characterize the mode of action of PIT-1, NMR-based analyses of PIT-1 binding to the PH domain of Akt were performed. […] PIT-1 was further titrated to identify residues primarily affected by the small molecule binding. Using published Akt2 HSQC peak assignments (Auguin D et al. (2004) J Biomol NMR 28:137-55), it was observed that the residues Trp22 (W22), Tyr26 (Y26), and Asn54 (N54), located in the PIP3 binding pocket of the Akt PH domain, are primarily affected by PIT-1. Changes in other crosspeak signals were observed only at the 2× access of PIT-1.

[7] = test system: SUM159 cells transfected with VAV2 or WAVE2; assay: Lamellipodia formation and membrane translocation in VAV/WAVE-transfected cells; type: cell-based, human; conditions: 100 μM, 2 hr
Source text: Of the PIP3-binding actin-regulating factors, VAV and WAVE family proteins have been identified as important PIP3-interacting proteins regulating actin polymerization, lamellipodia formation, and cell motility in response to growth factor stimulation. Hornstein I et al. (2004) Cell Signal 16:1-11; Oikawa T et al. (2004) Nat Cell Biol 6:420-6. Therefore, the effect of PIT-1 on the cellular localization of GFP fusions of VAV and WAVE proteins was investigated. SUM159 cells transfected with VAV2 or WAVE2 GFP vectors were treated with PIT-1, PIT-2, PIT-1i-1, or PIT-1i-2 (100 μM) for 2 hr. Alternatively, cells were serum starved overnight, treated with these same compounds and then stimulated with PDGF 100 ng/ml for 15 min. Subsequently, actin fibers were stained with TRITC-phalloidin and analyzed using fluorescent microscopy. The numbers of cell ruffles/lamellipodia were counted in five random fields.

PLC-δ PH domain, sequence (P51178 21-130): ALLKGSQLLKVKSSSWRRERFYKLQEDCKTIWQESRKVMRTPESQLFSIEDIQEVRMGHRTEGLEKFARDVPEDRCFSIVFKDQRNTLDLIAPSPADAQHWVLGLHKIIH
WAVE2, sequence (Q9Y6W5 whole entry, species assumed, the tested form may be a part): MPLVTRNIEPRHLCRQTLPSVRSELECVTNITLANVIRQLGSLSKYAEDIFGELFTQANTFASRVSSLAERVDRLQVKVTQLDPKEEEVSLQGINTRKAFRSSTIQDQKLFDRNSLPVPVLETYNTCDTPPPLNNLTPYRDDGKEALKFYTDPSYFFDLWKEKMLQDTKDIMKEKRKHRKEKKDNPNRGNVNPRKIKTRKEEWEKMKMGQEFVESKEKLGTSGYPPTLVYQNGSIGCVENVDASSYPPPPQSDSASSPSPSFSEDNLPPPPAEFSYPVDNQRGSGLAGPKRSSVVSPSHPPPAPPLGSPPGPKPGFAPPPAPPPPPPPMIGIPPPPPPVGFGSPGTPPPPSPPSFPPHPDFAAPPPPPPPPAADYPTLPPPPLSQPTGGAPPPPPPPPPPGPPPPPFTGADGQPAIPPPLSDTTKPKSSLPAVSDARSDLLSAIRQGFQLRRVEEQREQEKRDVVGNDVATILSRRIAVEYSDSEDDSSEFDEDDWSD
Bcl-xL, sequence (Q07817 whole entry, species assumed): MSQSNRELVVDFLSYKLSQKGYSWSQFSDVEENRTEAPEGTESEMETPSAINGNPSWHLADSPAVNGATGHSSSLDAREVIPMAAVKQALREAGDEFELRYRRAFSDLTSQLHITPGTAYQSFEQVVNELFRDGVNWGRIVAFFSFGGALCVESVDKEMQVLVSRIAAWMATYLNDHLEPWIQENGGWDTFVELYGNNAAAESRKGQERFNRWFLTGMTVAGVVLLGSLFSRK
VAV2, sequence (P52735 whole entry, species assumed, the tested form may be a part): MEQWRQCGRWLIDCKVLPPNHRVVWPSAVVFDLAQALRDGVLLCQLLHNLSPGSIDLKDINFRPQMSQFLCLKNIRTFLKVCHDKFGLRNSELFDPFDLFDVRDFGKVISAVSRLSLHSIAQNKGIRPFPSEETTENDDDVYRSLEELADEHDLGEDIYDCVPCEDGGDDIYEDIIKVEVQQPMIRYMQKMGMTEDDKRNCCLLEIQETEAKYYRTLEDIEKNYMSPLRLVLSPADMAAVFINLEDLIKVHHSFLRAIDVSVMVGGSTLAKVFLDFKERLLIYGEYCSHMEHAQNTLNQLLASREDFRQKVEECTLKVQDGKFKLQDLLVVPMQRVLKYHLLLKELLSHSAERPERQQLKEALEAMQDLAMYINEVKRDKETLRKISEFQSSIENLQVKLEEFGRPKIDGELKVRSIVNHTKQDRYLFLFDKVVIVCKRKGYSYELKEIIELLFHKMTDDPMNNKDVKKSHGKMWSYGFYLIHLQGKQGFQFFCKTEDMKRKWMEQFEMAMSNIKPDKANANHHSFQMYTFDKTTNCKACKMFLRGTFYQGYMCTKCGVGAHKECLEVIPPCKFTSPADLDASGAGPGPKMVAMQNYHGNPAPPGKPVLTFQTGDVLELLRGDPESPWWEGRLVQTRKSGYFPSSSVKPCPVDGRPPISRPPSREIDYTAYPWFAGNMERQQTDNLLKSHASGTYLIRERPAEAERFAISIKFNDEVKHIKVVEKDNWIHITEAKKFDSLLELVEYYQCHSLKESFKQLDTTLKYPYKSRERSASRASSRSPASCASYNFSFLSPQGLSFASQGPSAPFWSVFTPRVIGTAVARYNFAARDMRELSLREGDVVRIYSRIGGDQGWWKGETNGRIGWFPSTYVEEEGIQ
PH domain of Akt (His6-Akt123), sequence (P31749 1-123): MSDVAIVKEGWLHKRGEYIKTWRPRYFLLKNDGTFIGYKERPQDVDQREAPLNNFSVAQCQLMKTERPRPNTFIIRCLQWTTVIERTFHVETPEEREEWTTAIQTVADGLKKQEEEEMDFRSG
R86A mutant of the PH domain, sequence (P31749 1-123 R86A): as the sequence (P31749 1-123) above, with R86A counted along it

SMILES	combination with Akt kinase inhibitors: Akt activation, downstream phosphorylation, cell survival (U87MG cells [1])	long-term colony formation by U87MG cells (U87MG cells [2])	effect on R86A mutant PH domain (HSQC) [3]	PI3K/PDK1/Akt signaling in HUVEC [4]	killing of Bax/Bak double knockout compared with wild-type cells [5]	changes in HSQC spectra of Bcl-xL (Bcl-xL)	cancer cell invasion through matrigel (cancer cells)	cytotoxic effects at concentrations used in migration and invasion experiments (cancer cells; P>0.05)	acquisition of invasive phenotype by SUM-159 cells (cancer cells; reversible)	cellular localization of PLC-δ PH domain (PLC-δ PH domain)	plasma membrane translocation of VAV2 (VAV2)	plasma membrane translocation of WAVE2 (WAVE2)	changes in 2D HSQC 1H-15N correlation spectrum of His6-Akt123 [6]	lamellipodia formation and membrane translocation of VAV/WAVE proteins [7]
O=C(NC(=S)Nc1cc([N+](=O)[O-])cc(Cl)c1O)c1ccccc1 [PIT-1]	acted synergistically	suppressed long-term colony formation	no effect	capable of blocking PI3K/PDK1/Akt signaling pathway	reduced in Bax/Bak double knockout cells	did not elicit any changes	efficiently suppressed cancer cell invasion through matrigel	no significant cytotoxic effects	blocked acquisition of the invasive phenotype	no inhibitory effect	significantly inhibited the translocation	suppressed the plasma membrane translocation	induces significant changes	
O=C(NC(=O)c1ccccc1)Nc1cc([N+](=O)[O-])cc(Cl)c1O [PIT-1i-1, reference compound]														inactive
COc1c(Cl)cc([N+](=O)[O-])cc1NC(=S)NC(=O)c1ccccc1 [PIT-1i-2]														inactive
